This note sets out measurements from patent publication US8008230B2, “Synergistic antifungal DDAC compositions” (priority 2004, dated 2011).

Read-outs that look alike come from different tables or passages of the source.

For assay [1], the system named is Botrytis cinerea. Put plainly: Poison plate assay (MIC and synergy index). The note with it: 168 h. Type of assay: cell-based, Botrytis cinerea strain BC03019. How it is done:
Activity against fungal growth was determined with the poison plate assay. A calculated amount of a stock solution (containing either DDAC, boscalid, fenhexamid, pyrimethanil, thiophanate-methyl, triflumizole, azoxystrobin, dimoxystrobin, picoxystrobin, or pyraclostrobin in a concentration of 500 ppm in dimethyl sulfoxide) was pipetted into 24-well plates in order to reach a final test concentration ranging from 0.21 to 5 ppm in 12 steps when mixed with a culture medium. These culture media were either Glucose Agar (GA) (10 g glucose, 1.5 g K2HPO4, 2 g KH2PO4, 1 g (NH4)2SO4, 0.5 g MgSO4 and 12.5 g agar in 1 liter deionised water) when pyrimethanil was used as the test substance or Potato Dextrose Agar (PDA) (4 g potato infusion, 20 g bacto dextrose and 15 g bacto agar in 1 liter deionised water) for any of the other test substances. The medium was inoculated with 2 μl of a spore/mycelium suspension. The 24-well plates were kept in the dark at a temperature of 22° C., and a relative humidity of 75% and evaluated for fungal growth after one week.
The following fungi species were used in the poison plate assay: Penicillium digitatum strain Sas (sensitive to demethylase inhibiting fungicides), Penicillium digitatum strain LDW930223 (reduced sensitivity to demethylase inhibiting fungicides), Penicillium italicum strain H17 (reduced sensitivity to demethylase inhibiting fungicides), Botrytis cinerea strain BC03019, Geotrichum candidum, or Gloeosporium album strain A18.
The lowest concentration in ppm of each test compound or mixture of test compounds sufficient to inhibit visible growth was taken as the minimum inhibitory concentration (MIC). When no fungal growth was observed, the abbreviation “ng” was used in Table 2. Synergy was calculated using the Synergy Index method described by von Kull et al. (F. C. Kull, P. C. Eismann, H. D. Sylvestrowicz, R. L. Mayer, 1961, Applied Microbiology 9: 538-541).
Synergistic Index (SI)=(x/m)+(y/n) • m and n are the MIC values of test substances 1 and 2 respectively, when applied alone • x and y are the respective quantities of test substances 1 and 2 in mixtures which also cause the complete inhibition of fungal growth, i.e. x and y equal [quantity of test substances 1 and 2, resp., in the mixture (e.g. 0.8 and 0.2, 066 and 0.33 . . . )] multiplied by [MIC-value of the mixture]. […] A result smaller than 1 indicates a synergistic effect of the combination.

The test system of assay [2] is Penicillium digitatum. Put plainly: Curative treatment by dipping of lemons artificially inoculated with Penicillium digitatum. Type of assay: in vivo. The note with it: read-out: % Efficacy. How it is done:
Aqueous test solutions were prepared with concentrations of 10 μg/ml, 100 μg/ml and 1000 μg/ml of DDAC (I); and 500 μg/ml of imazalil (II-a). These test solutions were used to prepare mixtures comprising component (I) and component (II-a) with a concentration respectively of 1000 μg/ml of (I) and 500 μg/ml of (II-a); 100 μg/ml of (I) and 500 μg/ml of (II-a) and 10 μg/ml of (I) and 500 μg/ml of (II-a).
Lemons were artificially inoculated with a 10 mm diameter cork borer dipped in a spore suspension containing 10^6 cfu/ml of Penicillium digitatum. The lemons were treated after 24 hours by submerging for 30 seconds in one of the test solutions.
Treated and untreated lemons were incubated for 14 days in a dark climate room at 20° C. After the incubation period, the diameter of fungal growth was measured and % efficacy (growth inhibition) versus control was calculated. Fungal growth was quantified by measuring the distance, in mm, between the perimeter of the 10 mm diameter inoculation ring and the perimeter of the damaged zone.
Synergy was considered to occur when the observed effect, or measured activity, of a combination of both components was greater than the corresponding Ec value.

The mark [3] stands for this setting: % DDAC + % test substance 0 + 100 (test substance alone), Potato Dextrose Agar, one week, read-out: MIC (minimum inhibitory concentration in ppm total a.i.).

As to `O=C(Nc1ccccc1-c1ccc(Cl)cc1)c1cccnc1Cl` [boscalid, 2-chloro-N-(4′-chlorobiphenyl-2-yl)-nicotinamide], the MIC in assay [1] (setting [3]) was greater than 5 µg/mL.
Take `C=CCOC(Cn1ccnc1)c1ccc(Cl)cc1Cl` (stereo not drawn) [Imazalil (IIa)]: the Emax at 500 µg/mL in assay [2] (test concentration 500 μg/ml, lemon, dipped 24 h after inoculation, 14 days incubation) came to 78%.
On to `COC(=O)NC(=S)Nc1ccccc1NC(=S)NC(=O)OC` [thioph. methyl, 4,4′-(o-phenylene)bis(3-thioallophanate)], for which the MIC in assay [1] (setting [3]) was 2.11 µg/mL.
Consider `CCCCCCCCCC[N+](C)(C)CCCCCCCCCC.[Cl-]` [DDAC, didecyl dimethyl ammonium chloride], for which, in assay [2], the Emax at 10 µg/mL was 0%, the Emax at 100 µg/mL stood at 0% and the Emax at 1000 µg/mL worked out at 22%. Also, the MIC in assay [1] (read-out: MIC (minimum inhibitory concentration in ppm total a.i.), % DDAC + % test substance 100 + 0 (DDAC alone), Glucose Agar (pyrimethanil series), one week) is 5 µg/mL. Also, the MIC in assay [1] (read-out: MIC (minimum inhibitory concentration in ppm total a.i.), % DDAC + % test substance 100 + 0 (DDAC alone), Potato Dextrose Agar, one week) was greater than 5 µg/mL.
Take `Cc1cc(C)nc(Nc2ccccc2)n1` [pyrimethanil, 4,6-dimethyl-N-phenyl-2-pyrimidinamine]: the MIC in assay [1] (% DDAC + % test substance 0 + 100 (test substance alone), Glucose Agar, one week, read-out: MIC (minimum inhibitory concentration in ppm total a.i.)) was found to be 2.11 µg/mL.
For the molecule `CC1(C(=O)Nc2ccc(O)c(Cl)c2Cl)CCCCC1` [fenhexamid, 2′,3′-dichloro-4′-hydroxy-1-methylcyclohexanecarboxanilide], the MIC in assay [1] (setting [3]) was 1.58 µg/mL.
For `COC(=O)N(OC)c1ccccc1COc1ccn(-c2ccc(Cl)cc2)n1` [pyraclostrobin, methyl N-(2-[1-(4-chlorophenyl)-1H-pyrazol-3-yloxymethyl]phenyl](N-methoxy)carbamate], in assay [1] (setting [3]), the MIC was greater than 5 µg/mL.
With `CCCOC/C(=N\c1ccc(Cl)cc1C(F)(F)F)n1ccnc1` [triflumizole, (E)-4-chloro-α,α,α-trifluoro-N-(1-imidazol-1-yl-2-propoxyethylidene)-o-toluidine], the MIC in assay [1] (read-out: MIC (minimum inhibitory concentration in ppm total a.i.), % DDAC + % test substance 0 + 100 (test substance alone), Potato Dextrose Agar, one week) is greater than 5 µg/mL.
